The test system of series [1] is Factor XI mRNA. Description: Cynomolgus monkeys, escalating doses: liver Factor XI RNA analysis (Example 29). To be noted: escalating doses 5, 10, 25 mg/kg s.c. over 12 weeks, day 85. Type of series: in vivo. The protocol:
Groups, each consisting of two male and three female monkeys, were injected subcutaneously with ISIS 416838, ISIS 416850, ISIS 416858, ISIS 416864, or ISIS 417002 in escalating doses. Antisense oligonucleotide was administered to the monkeys at 5 mg/kg three times per a week for week 1; 5 mg/kg twice per week for weeks 2 and 3; 10 mg/kg three times per week for week 4; 10 mg/kg twice per week for weeks 5 and 6; 25 mg/kg three times per week for week 7; and 25 mg/kg twice per week for weeks 8, 9, 10, 11, and 12. One control group, consisting of two male and three female monkeys, was injected subcutaneously with PBS according to the same dosing regimen. An additional experimental group, consisting of two male and three female monkeys, was injected subcutaneously with ISIS 416850 in a chronic, lower dose regimen. Antisense oligonucleotide was administered to the monkeys at 5 mg/kg three times per week for week 1; 5 mg/kg twice per week for week 2 and 3; 10 mg/kg three times per week for week 4; and 10 mg/kg twice per week for weeks 5 to 12. Body weights were measured weekly. Blood samples were collected 14 days and 5 days before the start of treatment and subsequently once per week for Factor XI protein activity analysis in plasma and measurement of various hematologic factors. On day 85, the monkeys were euthanized by exsanguination while under deep anesthesia, and organs harvested for further analysis.
On day 85, RNA was extracted from liver tissue for real-time PCR analysis of Factor XI using primer probe set LTS00301 (forward primer sequence […], designated herein as SEQ ID NO 271; reverse primer sequence […], designated herein as SEQ ID NO: 272; and probe sequence TGCAGGCACAGCATCCCAGTGTTCTX, wherein X is a fluorphore, designated herein as SEQ ID NO. 273). Results are presented as percent inhibition of Factor XI, relative to PBS control.

The subject of a further series is Factor XI protein. Description: Cynomolgus monkeys: plasma Factor XI protein ELISA (Example 30). Type of series: in vivo. To be noted: for Inhibition of Factor XI protein relative to the PBS control: 25 mg/kg s.c., plasma ELISA. In a few lines: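 Monkeys (2 male, 2 female per group) dosed s.c. with antisense oligonucleotide 25 mg/kg three times in week 1, then twice weekly to week 8; PBS control on same schedule. Plasma (1:50) assayed by sandwich ELISA with polyclonal anti-Factor XI capture and peroxidase-conjugated detection, o-phenylenediamine read at 490 nm; expressed as percent reduction versus PBS.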
Background: ELISA stands for enzyme-linked immunosorbent assay.

Series [2] has as its system Factor XI mRNA. Description: Cynomolgus monkeys, 25 mg/kg: liver Factor XI RNA analysis (Example 30). To be noted: for % inhibition of Factor XI mRNA in liver relative to the PBS control: 25 mg/kg s.c., day 55. The series is classed as in vivo. In a few lines:
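Cynomolgus monkeys (2 male, 2 female per group) received antisense oligonucleotide at 25 mg/kg subcutaneously, three times weekly in week 1, then twice weekly in weeks 2–8. Liver Factor XI mRNA was quantified by real-time PCR on day 55 and expressed as percent inhibition relative to a PBS-dosed group.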

Series [3] deals with IL-1β, IL-6, IFN-γ, TNF-α, IL-8, MIP-1α, MCP-1, MIP-10, RANTES. Description: Cynomolgus monkeys: cytokine and chemokine assays (Example 30). The series is classed as in vivo. In a few lines: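 Male and female monkeys (2 each per group) received 25 mg/kg antisense oligonucleotide subcutaneously three times weekly in week 1, then twice weekly to week 8; PBS controls dosed alike. Blood cytokines/chemokines measured 14 days pre-dose and on day 55, using primate antibodies (IL-1β, IL-6, IFN-γ, TNF-α) or cross-reacting human antibodies (others).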

In another series the test system is bradykinin. Nature of the series: Colitis Study E: bradykinin levels in colon. The series is classed as in vivo, Swiss Webb mice. To be noted: for Bradykinin levels in the colons: DSS-treated mice, day 7, 40 mpk. The method, then:
Two groups 8 Swiss Webb mice were dosed with 40 mg/kg of ISIS 404071 injected subcutaneously twice a week for 3 weeks. Two control groups of 8 Swiss Webb mice were dosed with PBS subcutaneously twice a week for 3 weeks. Both the ASO treated groups and one of the control groups were then given 4% DSS in distilled water for 7 days ad libitum. One of the ASO and DSS treated groups was also given intravenous injections of 20 μg of recombinant human Factor XI protein (Haematologic Technologies Inc.) for 7 consecutive days, starting the day before DSS treatment. Mice were sacrificed at the end of the study on day 7 after DSS was administered.
The effect of antisense inhibition of Factor XI on kinin levels in the colon was evaluated (Phoenix Pharmaceuticals, Burlingame, Calif.) at the end of the study on day 7 after DSS was administered and the results are presented in Table 40.

Series [4] has as its system soluble CD40 ligand (CD40L). Nature of the series: Colitis Study D: CD40L levels. The series is classed as in vivo, Swiss Webb mice. To be noted: for CD40L levels in colon: DSS-treated mice. The protocol:
In a first group of 8 Swiss Webb mice, 10 mg/kg of ISIS 404071 was injected subcutaneously twice a week for 3 weeks. In a second group of 8 Swiss Webb mice, 20 mg/kg of ISIS 404057 was subcutaneously injected twice a week for 3 weeks. In a third control group of 8 Swiss Webb mice, 40 mg/kg of ISISI 404057 was injected subcutaneously twice a week for 3 weeks. Two control groups of 8 mice each were injected with PBS twice a week for 3 weeks. After the oligonucleotide treatment, 4% DSS in water was administered ad libitum for 7 days to all the experimental groups and one PBS control group.
Plasma levels of soluble CD40 ligand (CD40L) are known to be elevated in cases of inflammatory bowel disease (Ludwiczek, O. et al., Int. J. Colorectal Disease. 2003. 18: 142-147) and may be considered a marker of intestinal inflammation. […]

The mark [5] stands for this setting: day −14 (before start of treatment).

In the oligonucleotide strings, read from the 5' end, every base follows the letter of its sugar. An asterisk marks phosphorothioate; unmarked linkages are phosphodiester. Other units and linkages are bracketed, terminal groups are in braces. A string of capitals states the bases alone. e = 2'-O-(2-methoxyethyl) (MOE); [5mC] = 5-methylcytosine; d = 2'-deoxy (DNA)

In the case of “416838 (antisense GCAACCGGGATGATGAGTGC; 5-10-5 gapmer, wing sugar chemistry not given here, further chemistry not given here) [compound 416838]”, in the series with Factor XI mRNA [1], the “% inhibition of Factor XI mRNA in liver relative to the PBS control” value is recorded as 37%.
Regarding “416850 (antisense TGCACAGTTTCTGGCAGGCC; 5-10-5 gapmer, wing sugar chemistry not given here, further chemistry not given here) [compound 416850]”, the “Inhibition of Factor XI protein relative to the PBS control” value was determined as 20% with Factor XI protein (Day 10); 31% in the series on Factor XI protein (Day 17); 38% in the series with Factor XI protein (Day 24); 52% in the series on Factor XI protein (Day 31); 51% in the series with Factor XI protein (Day 38); 53% with Factor XI protein (Day 45). For the same substance, the “Inhibition of Factor XI protein relative to the PBS control” value in the series on Factor XI protein (Day 52) stood at 53%; in the series on Factor XI protein (Day 55), 58%; with Factor XI protein (Day −5), 0%; in the series with Factor XI protein (Day −14), 0%. Also, the figures for the “% inhibition of Factor XI mRNA in liver relative to the PBS control” value in the series on Factor XI mRNA [2] and in the series with Factor XI mRNA [1] were 68% and 84%, respectively.
For “416858 (antisense ACGGCATTGGTGCACAGTTT; 5-10-5 gapmer, wing sugar chemistry not given here, further chemistry not given here) [compound 416858]”, the “Inhibition of Factor XI protein relative to the PBS control” value in the series on Factor XI protein (Day 10) turned out to be 36%; in the series with Factor XI protein (Day 17), 49%; with Factor XI protein (Day 24), 62%; in the series with Factor XI protein (Day 31), 68%; in the series on Factor XI protein (Day 38), 74%; in the series with Factor XI protein (Day 45) it was 79%. For the same substance, the “Inhibition of Factor XI protein relative to the PBS control” value with Factor XI protein (Day 52) is 81%; with Factor XI protein (Day 55) it was 81%; in the series with Factor XI protein (Day −5) it was 0%; in the series on Factor XI protein (Day −14), 4%. Further, the entries for the “% inhibition of Factor XI mRNA in liver relative to the PBS control” value in the series on Factor XI mRNA [2] and with Factor XI mRNA [1] were 89% and 90%, respectively.
Consider “416864 (antisense GGCAGCGGACGGCATTGGTG; 5-10-5 gapmer, wing sugar chemistry not given here, further chemistry not given here) [compound 416864]”, for which, in the series on Factor XI mRNA [1], the “% inhibition of Factor XI mRNA in liver relative to the PBS control” value is 44%.
With “417002 (antisense GGTGCACAGTTTCTGGCAGG; 2-13-5 gapmer, wing sugar chemistry not given here, further chemistry not given here) [compound 417002]”, in the series on Factor XI mRNA [1], the “% inhibition of Factor XI mRNA in liver relative to the PBS control” value is 57%.
As for “445522 (antisense eG*e[5mC]*eA*e[5mC]*eA*dG*dT*dT*dT*d[5mC]*dT*dG*dG*e[5mC]*eA*eG*eG*e[5mC]) [compound 445522]”, the “Inhibition of Factor XI protein relative to the PBS control” value was 36% in the series with Factor XI protein (Day 10); 50% in the series on Factor XI protein (Day 17); 61% in the series with Factor XI protein (Day 24); 70% in the series on Factor XI protein (Day 31); 73% with Factor XI protein (Day 38); 77% with Factor XI protein (Day 45). Also, the “Inhibition of Factor XI protein relative to the PBS control” value in the series with Factor XI protein (Day 52) was 80%; in the series with Factor XI protein (Day 55), 82%; with Factor XI protein (Day −5), 0%; in the series on Factor XI protein (Day −14), 2%. For the same substance, in the series with Factor XI mRNA [2], the “% inhibition of Factor XI mRNA in liver relative to the PBS control” value was 89%.
Take “445531 (antisense eG*eG*e[5mC]*eA*eT*dT*dG*dG*dT*dG*d[5mC]*dA*d[5mC]*eA*eG*eT*eT*eT) [compound 445531]”: the “Inhibition of Factor XI protein relative to the PBS control” value stood at 9% in the series with Factor XI protein (Day 10); 22% with Factor XI protein (Day 17); 23% in the series with Factor XI protein (Day 24); 27% in the series on Factor XI protein (Day 31); 29% in the series on Factor XI protein (Day 38); 32% with Factor XI protein (Day 45). For the same substance, the “Inhibition of Factor XI protein relative to the PBS control” value was 32% in the series on Factor XI protein (Day 52), 37% in the series on Factor XI protein (Day 55), 1% with Factor XI protein (Day −5) and 0% with Factor XI protein (Day −14). The “% inhibition of Factor XI mRNA in liver relative to the PBS control” value with Factor XI mRNA [2] worked out at 66%.
On to “ISIS 416850: gapmer of Table 8 (antisense eT*eG*e[5mC]*eA*e[5mC]*dA*dG*dT*dT*dT*d[5mC]*dT*dG*dG*d[5mC]*eA*eG*eG*e[5mC]*e[5mC])”, for which the “Factor XI protein levels (in words)” value in the series with Factor XI protein (cynomolgus monkeys, Example 30) is “time-dependent decrease in protein levels”. The “Factor XI mRNA in liver (in words)” value with Factor XI mRNA [2] (cynomolgus monkeys, day 55, in comparison to the PBS control) is reported as “significant reduction of Factor XI mRNA”. Further, the IL-1β level in series [3] (25 mg/kg s.c., day 55) is 106 pg/mL; in series [3] (setting [5]), 215 pg/mL. Moreover, the MIP-1β level in series [3] (25 mg/kg s.c., day 55) worked out at 50 pg/mL; in series [3] (setting [5]), 31 pg/mL.
“TGGTAATCCACTTTCAGAGG (eT*eG*eG*eT*eA*dA*dT*d[5mC]*d[5mC]*dA*d[5mC]*dT*dT*dT*d[5mC]*eA*eG*eA*eG*eG) [ISIS 404071, 5-10-5 MOE gapmer targeting murine Factor XI, target start site 869]”: in the series on bradykinin (Colitis Study E, day 7), the “bradykinin levels (in words)” value is “decreased”. Moreover, the “Bradykinin levels in the colons” value with bradykinin (no human recombinant FXI) is reported as 0.1 ng/mg; in the series on bradykinin (plus human recombinant FXI 20 ug/mouse/day) it was 0.3 ng/mg. Also, the “CD40L levels (in words)” value in series [4] (Colitis Study D) is given as “decreased”. Moreover, the “CD40L levels in colon” value in series [4] (10 mpk) came to 0.19 ng/mg protein; in series [4] (20 mpk), 0.26 ng/mg protein; in series [4] (40 mpk) it was 0.39 ng/mg protein.

(Values after patent US20120083522A1, “MODULATION OF INFLAMMATORY RESPONSES BY FACTOR XI” (Isis Pharmaceuitcals, inc., priority 2009, published 2012).)
